Where two headings read alike, the source gives them in different places.
What was measured:
[1] = design: method as in Bick et al., 2002; Bi et al., 2016; settings: ref Bick et al., 2002, Bi et al., 2016; cited from earlier work
[2] = Liver distribution of cinobufotalin in normal and DEN-injured rats; assay type: in vivo; settings: male, Sprague Dawley, rat, iv, 2.5 mg/kg, i.v. 2.5 mg/kg, after the last sampling time point (24 h), read-out: concentration of cinobufotalin in liver tissues
Method: For PK studies, the rats were randomly divided into two experimental groups (10 rats for normal rats group and 20 rats for DEN-injured rats group, considering the animal casualties during the modeling process). HCC rat model was established by intraperitoneal administration of 50 mg/kg DEN two times per week ([Fuchs et al., 2014]), and the control group rats were treated with normal saline in the same way. After 14 weeks of administration, three rats were randomly selected and anesthetized by anesthesia cocktail (Ketamine 50 mg/mL, Xylazine 3.3 mg/mL and Acetopromazine 3.3 mg/mL). Then the liver was taken out and photographed to determine whether the animal model was successfully constructed.
Before PK experiment, a cannula was introduced into the jugular vein of the anesthetized rat and administrated carprofen subcutaneously after the surgery. After observation for 24 h, when the activity and excretion of rats were normal, rats were dosed with cinobufotalin at 2.5 mg/kg through jugular vein cannula. Blood samples (200 μL) were withdrawn at each pointed time (5, 10, 15, 30, 45 min, and 1, 1.5, 2, 4, 6, 8, 12, and 24 h) after dosing, and whole blood was transferred into tubes pre-treated with heparin (1000 U/mL). Then an equal volume of saline was injected into rats through jugular vein cannula immediately. […]

HepG2 cells = experiment: Wound healing assay, HepG2 cells; assay type: cell-based; settings: 40, 60 and 80 nM, 24 h
Method: Hepatocellular cancer cells (HepG2 and Huh-7) were purchased from the cell bank of the Chinese Academy of Science (Shanghai, China). These cells were cultured in Dulbecco’s modified Eagle’s medium (DMEM) containing 10% fetal bovine serum (FBS), penicillin (100 units/mL) and streptomycin (100 units/mL) in a humidified atmosphere with 5% CO2 at 37 °C.
Wound healing assay was used to investigate the effect of cinobufotalin on the migration of HepG2 and Huh-7 cells. Cells were seeded into 6-well plates at the density of 4 × 10^5 cells/well and maintained until reaching monolayer confluence. The cells were scratched using 20-μL pipette tips and rinsed with PBS buffer for three times. And then the cells were cultured in serum-free medium containing different concentrations of cinobufotalin (40, 60, 80 nM). After treatment with cinobufotalin for different lengths of time (0 and 24 h), the width of wound was measured and the images of cells were acquired using inverted microscope (Leica, Wetzlar, German). The rate of wound healing = [(the wound width of 0 h - 24 h)/0 h wound width] × 100%. All experiments were performed in triplicate.

[3] = Stability in 50% acetonitrile solution; assay type: physicochemical
Method: In addition, the stabilities of cinobufotalin at 20, 200, and 2000 ng/mL in different storage conditions were evaluated, including short term stability (such as 25°C for 4, 8, 12, and 24 h and 4°C for 4, 8, 12, and 24 h), long term stability (-80°C for 10 days) and three freeze-thaw cycles in rat plasma. Stabilities were expressed as the concentrations after different operations to the concentration at time zero. All of the samples were processed as described in Preparation of rat plasma samples section. A 5 μL aliquot was injected to UPLC-QTOF/MS for analyses.
In addition, we also evaluated the stability of cinobufotalin in 50% accetonitrile solution at 4°C and room temperature (25°C) after storage for 4, 8, 12, and 24 h.

SMILES: CC(=O)O[C@H]1[C@H]2O[C@]23[C@@H]2CC[C@]4(O)C[C@@H](O)CC[C@]4(C)[C@H]2CC[C@]3(C)[C@H]1c1ccc(=O)oc1 [Cinobufotalin]
- toxicity on over dose [1]: cardiotoxicity and neurotoxicity
- concentration at 24 h ([2]; DEN-injured rats): 21 ± 2.7 ng/mL
- concentration at 24 h ([2]; normal rats): 39.3 ± 4.9 ng/mL
- migration of HepG2 cells (wound healing) (HepG2 cells): significantly attenuated
- Stability in 50% Acetonitrile solution, 4°C, 4 h ([3]; 20 ng/mL): 97.5 ± 5.7%
- Stability in 50% Acetonitrile solution, 4°C, 8 h ([3]; 20 ng/mL): 101.9 ± 3.6%
- Stability in 50% Acetonitrile solution, 4°C, 12 h ([3]; 20 ng/mL): 99.1 ± 2.5%
- Stability in 50% Acetonitrile solution, 4°C, 24 h ([3]; 20 ng/mL): 100.4 ± 2.7%
- Stability in 50% Acetonitrile solution, 25°C, 4 h ([3]; 20 ng/mL): 99.5 ± 4.4%
- Stability in 50% Acetonitrile solution, 25°C, 8 h ([3]; 20 ng/mL): 97.1 ± 2.3%
- Stability in 50% Acetonitrile solution, 25°C, 12 h ([3]; 20 ng/mL): 97.7 ± 4.6%
- Stability in 50% Acetonitrile solution, 25°C, 24 h ([3]; 20 ng/mL): 95.5 ± 4.3%
- Stability in 50% Acetonitrile solution, 4°C, 4 h ([3]; 200 ng/mL): 102.6 ± 6.8%
- Stability in 50% Acetonitrile solution, 4°C, 8 h ([3]; 200 ng/mL): 99.5 ± 4.0%
- Stability in 50% Acetonitrile solution, 4°C, 12 h ([3]; 200 ng/mL): 97.4 ± 2.9%
- Stability in 50% Acetonitrile solution, 4°C, 24 h ([3]; 200 ng/mL): 96.7 ± 2.6%
- Stability in 50% Acetonitrile solution, 25°C, 4 h ([3]; 200 ng/mL): 100.1 ± 2.8%
- Stability in 50% Acetonitrile solution, 25°C, 8 h ([3]; 200 ng/mL): 101.2 ± 2.0%
- Stability in 50% Acetonitrile solution, 25°C, 12 h ([3]; 200 ng/mL): 99.5 ± 4.3%
- Stability in 50% Acetonitrile solution, 25°C, 24 h ([3]; 200 ng/mL): 99.0 ± 2.8%
- Stability in 50% Acetonitrile solution, 4°C, 4 h ([3]; 2000 ng/mL): 102.0 ± 5.0%
- Stability in 50% Acetonitrile solution, 4°C, 8 h ([3]; 2000 ng/mL): 103.7 ± 3.5%
- Stability in 50% Acetonitrile solution, 4°C, 12 h ([3]; 2000 ng/mL): 96.3 ± 4.0%
- Stability in 50% Acetonitrile solution, 4°C, 24 h ([3]; 2000 ng/mL): 97.9 ± 2.5%
- Stability in 50% Acetonitrile solution, 25°C, 4 h ([3]; 2000 ng/mL): 100.3 ± 3.0%
- Stability in 50% Acetonitrile solution, 25°C, 8 h ([3]; 2000 ng/mL): 99.1 ± 1.1%
- Stability in 50% Acetonitrile solution, 25°C, 12 h ([3]; 2000 ng/mL): 98.4 ± 3.5%
- Stability in 50% Acetonitrile solution, 25°C, 24 h ([3]; 2000 ng/mL): 100.5 ± 3.3%
